Laboratory results from patent US11072582B2 (Epics Therapeutics, priority 2009, dated 2021).

Test system: adipocytes isolated from normal rat
Assay: Lipolysis assay in isolated adipocytes (isoprenaline-induced)
Format: cell-based
Details: 30 μM, FIG. 1
Description: Animals are killed by cervical dislocation and epididymal fat pads are removed and digested in collagenase buffer at 37° C./120 rpm for approximately 50 minutes.
After the pre-treatment, Isoprenaline (1 μM) is added to the adipocytes followed by 30 min incubation at 37° C./150 rpm. The reactions are put on ice and the buffer is assayed spectrophotometrically for the production of NADH^+ from glycerol breakdown in reactions catalyzed by glycerol kinase and glycero 1-3-phosphate dehydrogenase and/or Non Esterified Fatty Acid (NEFA). Each data point is investigated in triplicates in two independent experiments.

With `Cc1ccc(-c2ccc(C(=O)N3[C@@H](c4ccccc4Cl)CC[C@H]3C(=O)O)cc2)cc1` [Compound 5] the “inhibition of isoprenaline-induced lipolysis” value was “inhibit isoprenaline-induced lipolysis”.
